# Assay results published in article PMC4446823, “Inhibition of RORγt activity and Th17 differentiation by a set of novel compounds” (BMC Immunology, 2015).
# Where two headings read alike, the source gives them in different places.
# Key:
# RORγt [1] = target: T1, RORγt (Homo sapiens, UniProt P51449); assay: Gal4/RORγt-LBD luciferase reporter assay in RORγt-LBD+ Jurkat stable cells; type: cell-based; details: RORγt-LBD+ Jurkat cells, 6 h
# T1 construct: expressed in transfected cells
# T1 sequence (P51449 269-508 limits assumed): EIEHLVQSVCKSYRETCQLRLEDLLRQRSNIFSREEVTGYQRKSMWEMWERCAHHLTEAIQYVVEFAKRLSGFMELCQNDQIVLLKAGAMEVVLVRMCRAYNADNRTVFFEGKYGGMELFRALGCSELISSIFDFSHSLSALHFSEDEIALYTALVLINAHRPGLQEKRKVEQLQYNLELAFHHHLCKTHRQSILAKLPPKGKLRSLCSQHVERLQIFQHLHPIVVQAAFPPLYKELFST
# Excerpt: (§1) The pGL4.31 (luc2P/GAL4UAS/Hygro) and pBIND vectors were obtained from Promega (Madison, WI, USA). An IRES-GFP sequence was first cloned into the pBIND vector. Human RORγt was then amplified using cDNA isolated from human peripheral blood mononuclear cells (PBMCs) (provided by Dr. Hui Zhang) and inserted into the reconstructed pBIND-IRES-GFP vector to generate a Gal4–RORγt-LBD-IRES-GFP fusion sequence. The primers that used to construct the pBIND- Gal4–RORγt-LBD-IRES-GFP plasmid are as follows: RORγt-LBD forward 5′- […]-3′,reverse5′- […] -3′.
# A similar procedure was used to generate the Jurkat RORγt -LBD reporter cell line. For this, Jurkat cells (1 × 10^7) were transfected with pGL4.31 reporter plasmid (20 μg) by electroporation (Lonza, Basel, Switzerland) according to the manufacturer’s instructions. The transfected Jurkat cells were selected in RPMI 1640 medium containing 200 μg/mL hygromycin B prior to a second transfection. Stable Jurkat cotransfectants were then sorted based on GFP expression, and yielded a GFP^+ purity >96 % as determined by flow cytometry.
# RORγt-LBD^+-Jurkat (2 × 10^4) stable cells were seeded into 96-well round-bottom plates (Corning Inc, Corning, NY) and incubated in RPMI1640 complete medium overnight. Then, Screened compounds (Enamine, Monmouth Junction, NJ) were added to the wells using a Tecan Freedom EVO 150 (Tecan, Männedorf, Switzerland) to a final concentration of 50 μM. Cells were treated with DMSO or 100 nM PMA (Sigma-Aldrich, St. Louis, MO) only for use as negative and positive controls, respectively. After a 6 h treatment period, cells were lysed and assayed for luciferase activity (Promega) following the manufacturer’s instructions.
# RORγt-LBD^+-Jurkat cells were seeded into 96-well round-bottom plates (2 × 10^4) and cultured overnight prior to incubation with the screening compounds at 5-fold gradient final concentrations ranging from 5 μM to 8 nM. Cells were lysed 6 h later and assayed for luciferase activity (Promega) using the manufacturer’s instructions. Additionally, the results from the high-throughput screening at 50 μM concentration of candidates were also applied in the calculation of the EC50. The EC50 values were determined by plotting the logarithm of compound concentration versus relative luciferase activity to determine the half-maximal effective concentration (EC50).
# RORγt [2] = target: T1, RORγt; assay: Gal4/RORγt-LBD luciferase reporter assay in RORγt-LBD+ 293 T stable cells; type: cell-based; details: RORγt-LBD+ 293 T cells, 5 μM, 6 h
# Excerpt: as §1
# The pGL4.31 reporter plasmid (4 μg) was transfected into 293 T cells (1 × 10^6) with Lipofectamine™ 2000 (Invitrogen) according to manufacturer instructions. The transfected cells were then selected in a medium containing 100 μg/mL hygromycin B (Roche, San Francisco, CA, USA) for 3 weeks to obtain a cell population that expressed the pGL4.31 reporter gene. Then, the stable cells were transfected with pBIND-RORγt-LBD-IRES-GFP plasmid (4 μg). The cotransfectants were sorted by green fluorescent protein (GFP) expression, which yielded a RORγt-LBD^+ 293Tstable reporter cell line with >96 % purity as determined by flow cytometry.
# RORγt-LBD^+-293 T (1x10^4) stable cells wereseeded into 96-well plates (Corning Inc., Corning, NY)and incubated in DMEM complete medium overnight. Then the candidates were added with a final concentration of 5 μM. […]
# [3] = test system: mouse Th17 cell differentiation; assay: In vitro mouse Th17 cell differentiation, mRNA by quantitative PCR; type: cell-based; details: 5 μM, Th17-polarizing conditions (TGF-β, IL-6), 4 days, normalized to GAPDH
# Experimental: (§2) CD4^+CD25^− T cells were isolated from spleens of 8–12-week-old C57BL/6 mice as follows: single-cell suspensions were made by crushing the spleen through a cell strainer, and red blood cells (RBCs) were lysed with RBC lysis buffer. CD4^+ T cells were then purified using magnetic-activated cell sorting (MACS) column a CD4^+ T cell isolation kit (Miltenyi Biotec, Bergisch Gladbach, Germany) according to the manufacturer’s protocol.
# (§3) Spleen cells (3 × 10^6) were stimulated in 6-well plates with 5 μg/mL plate-bound anti-CD3e antibody (eBioscience, San Diego, USA) and 2 μg/mL soluble anti-CD28 antibody (eBioscience) for 24 h. The activated cells were then collected, and seeded into 96-well round-bottom plates (2 × 10^4) for Th17 differentiation in the presence of 5 ng/mL recombinant human TGF-β (R&D Systems, Minneapolis, MN), 30 ng/mL recombinant mouse IL-6 (R&D Systems, Minneapolis, MN), and either the screening compounds (5 μM final concentration) or DMSO as control. After culturing for 2 days, fresh medium (100 uL/well) containing recombinant human TGF-β, recombinant mouse IL-6, and the previously-introduced screening compounds was added to the cells, which were then cultured for additional 2 days.
# Total RNA was extracted from splenocytes with TRIzol (Invitrogen) after 5 days in culture. Approximately 1 μg total RNA was added to a 20 μL reaction volume for reverse transcription using the GoScript™ Reverse Transcription System (Promega) according to the manufacturer’s instructions. Synthesized cDNA was then used for real-time quantitative PCR using GoTaq® qPCR Master Mix (Promega). Gene expression of mouse Rorc, Il17a, and Il17f was normalized to that of Gapdh. The following primer sequences were used: Rorc forward 5′-TGTAATGTGG CCTACTCCTGCA-3′, reverse 5′-[…]-3′; Il17a forward 5′- […]-3′, reverse 5′-[…] -3′; Il17f forward 5′-[…]-3′, reverse 5′- […]-3′; Gapdh forward 5′-[…]-3′, reverse 5′-[…]-3′.
# IL-17A secretion = IL-17A secretion by ELISA in culture supernatant under Th17-polarizing conditions; type: cell-based; details: mouse CD4+ T cells, compound 5 μM, 5 days
# Experimental: as §2, §3
# The concentration of IL-17A in the splenocyte supernatant after 5 days in culture was determined using an ELISA kit (CUSABIO, Wuhan, China) according to the manufacturer’s protocol.
# [4] = Jurkat cell viability, MTT assay; type: cell-based, human; details: human, wild-type Jurkat cells, highest concentration 5 μM
# Experimental: (§4) Jurkat cell viability after culturing in the presence of the screened compounds was assessed by MTT assay. In brief, wild type Jurkat cells were seeded (2 × 10^4) and incubated with the compounds in 5-fold gradient dilutions. MTT (dimethylthiazolyl-2-5-diphenyltetrazolium bromide) dye solution (Sigma, St. Louis, MO, USA) was added 48 h later and incubated at 37 °C for 4 h, MTT was reduced by live cells into a colored formazan product. After centrifugation at 1500 rpm for 5 min, the supernatant was discarded and 100 μL DMSO was added to the plate, which was gently shaken for 10 min to dissolve the formazan product. Absorbance at 570 nm wavelength was recorded using Thermo Scientific Multiskan FC (Thermo Scientific, Waltham, MA, USA). Each treatment was repeated in quadruplicate. Cell viabilities were defined relative to control cells treated only with DMSO, with results used as evaluation of cytotoxicity of candidates. The half-maximal cytotoxic concentration (CC50) for each compound was calculated from the dose–response curves with the aid of GraphPad Prism software 5.0 (GraphPad Software, San Diego, CA).
# wild type Jurkat cells = assay: Jurkat cell viability, MTT assay; type: cell-based, human; details: 48 h; for reduction of Jurkat cell viability over vehicle control: 5 μM (highest concentration)
# Experimental: as §4
# [5] = read-out: EC50, inhibition of RORγt activity, Gal4/RORγt-reporter system
Structure (SMILES),"EC50 (RORγt [1]; 5 μM to 8 nM, read-out: EC50, relative luciferase activity, Gal4-reporter system) [µM]",reduction of RORγt activity in 293 T cells (RORγt [2]),EC50 (RORγt [1]; [5]) [µM],Il17a gene expression compared with vehicle-treated control group [3],Il17f gene expression compared with vehicle-treated control group [3],IL-17A concentration in culture supernatant (IL-17A secretion) [pg/mL],reduction of IL-17A concentration compared with vehicle-treated control cells (IL-17A secretion) [%],CC50 at 48 h [4] [µM],reduction of Jurkat cell viability over vehicle control (wild type Jurkat cells),"CC50 (wild type Jurkat cells; wild-type Jurkat cells, highest concentration 5 μM) [µM]"
"CC1Cc2ccccc2N1S(=O)(=O)c1ccc(Cl)c(C(F)(F)F)c1 (centres unmarked) [744267-30-9, 1-[4-chloro-3-(trifluoromethyl)phenyl] sulfonyl-2-methyl-2,3-dihydroindole, reference compound]",0.723,strongly inhibited,,,,,,,,
"Cc1cc(NC(=O)NC(c2ccc(C(C)C)cc2)c2cccs2)no1 (centres unmarked) [compound 29, 3-(5-methyl-1,2-oxazol-3-yl) - 1-[(4-propan-2-ylphenyl) - thiophen-2-ylmethyl] urea]",,,2.1,significantly reduce,significantly reduce,209,44,> 5,less than 25%,
"O=C(c1ccc(C2CCCCC2)cc1)N(CC1CCCO1)C1CCS(=O)(=O)C1 (centres unmarked) [compound 31, 4-cyclohexyl-N-(1,1-dioxothiolan-3-yl) - N-(oxolan-2-ylmethyl) benzamide]",,,17.5,significantly reduce,significantly reduce,226,39,,less than 25%,
"CCc1nnc(NC(=O)C2(S(=O)(=O)c3ccc(C)c(C)c3)CCCC2)s1 [compound 35, 1-(3,4-dimethylphenyl) sulfonyl-N-(5-ethyl-1,3,4-thiadiazol-2-yl) cyclopentane-1-carboxamide]",,,28,significantly reduce,significantly reduce,,,,less than 25%,
"CCCc1cc(C(=O)OCC(=O)NC(=O)NC2CCCC2)sc1C [compound 36, 2- Thiophenecarboxylic acid, 5-methyl-4-propyl-,2-[[(cyclopentylamino)carbonyl]amino] - 2-oxoethyl ester]",,,4.2,significantly reduce,significantly reduce,189,49,,about 50%,> 5
